These results are taken from US7262173B2, “Chemosensitizing with liposomes containing oligonucleotides” (Georgetown University, priority 1997, dated 2007).

The subject of one data set is Raf-1. Description: Raf-1 expression in normal mouse tissues after i.v. ODN. The format is in vivo, Balb/c nu/nu mice. To be noted: i.v. 6 mg/kg daily for 5 days. As to the method: FIG. 7: Effects of intravenous administration of LE-ATG-AS raf ODN (SEQ ID NO:1) our Raf-1 expression in normal and tumor tissues. Raf-1 expression was examined in liver, kidneys and SQ-20B tumor xenograft of Balb/c nu/nu mice after i.v. injections of 6 mg/kg daily dose of LE-ATG-AS raf ODN (SEQ ID NO:1) (AS) or LE-ATG-S raf ODN (SEQ ID NO:3) (S) for five consecutive days. Control mice (C) received normal saline. Representative data showing Raf-1 expression in lysates normalized for protein content by immunoprecipitation and immunoblotting (top). Quantification data are shown as mean±s.d. from three mice (bottom).
Logarithmically growing SQ-20B cells were injected subcutaneously (2×10^6 cells) in the flank regions on both sides in male Balb/c nu/nu mice under mild anesthesia. Tumors were allowed to grow to a mean tumor volume of 115 mm^3 before initiation of ODN treatment. Two treatment routes were followed: intravenous and intratumoral. For intravenous delivery, mice were randomly divided into six groups. […]
For in vivo expression studies, tumor tissue and organs were homogenized in the cell lysis buffer using Polytron homogenizer (Westbury, N.Y., USA). Raf-1 expression was analyzed in tissue homogenates by immunoprecipitation and immunoblotting as described above.

Data set [1] in a line: Plasma pharmacokinetics of raf ODN after i.v. injection. To be noted: 30 mg/kg i.v. In kind it is in vivo, Balb/c nu/nu mice. As to the method:
FIG. 3: The plasma concentration-time profile of LE-ATG-AS raf ODN (SEQ ID NO:1), 30 mg/kg LE-ATG-AS raf ODN (SEQ ID NO:1) (top panel) or TG-AS raf ODN (SEQ ID NO:1) (middle panel) was administered […]. in […] nu/nu mice. Blood samples were collected from retro-orbital sinus as indicated times after injection and the ODNs in plasma samples were extracted and analyzed by denaturing gel electrophoresis as explained in the experimental procedures. St standards prepared by spiking known amounts of ATG-AS raf ODN (SEQ ID NO:1) in blank plasma. Top panel: Samples were diluted before electrophoresis as follows: lane 1, 12×; lanes 2 and 3, 4×; lanes 4 and 5, 3.3×; lane 6, 2×; lane 7, 1.4×; lane 8, 1.3×; and lane 9, I×. […] Additional standards (1.4 to >2 log range) were used to determine ODN concentration over a 24 hour period (data not shown). Middle panel: Samples were diluted before loading as follows: lane 1, 4×, lanes 2 and 3, 2×, lanes 4, 5 and 6, I×; lane 7, 0.75×, lanes 8 and […], 0.6×. […]
The extracts were loaded on to 20% polyacrylamide/3 M urea gels and electrophoresed in TBE buffer. […] The autoradiographs were scanned using a computer program (ImageQuant software, Molecular Dynamics, Sunnyvale, Calif., and USA), and the amounts of ATG-AS raf ODN (SEQ ID NO:1) in various samples were calculated by comparison to standards.

Data set [2] has as its system SQ-20B cells. The conditions noted are these: free ODN 100 μM, 1% serum, previously demonstrated, cited from earlier work.
For data set [3], the system named is SQ-20B cells. Put plainly: Radiation survival dose response assay. The format is cell-based, human. To be noted: free ODN 100 μm. As to the method:
The appropriate numbers of SQ-20B cells were seeded in duplicate T-25 tissue culture flasks (Corning, N.Y., USA) in medium containing 20% FBS, and allowed to attach for 8 h at 37° C. […] Irradiations were performed using ^137Cs gamma irradiator (JL Shepard MARK I irradiator) and a dose rate of 114 cGy/min. The cells were irradiated with total doses of 1 Gy, 3 Gy, 5 Gy and 13 Gy, followed by incubation for 2 h. The medium in all flasks was then replaced with 20% FBS containing medium and incubations continued for 7–10 days. Surviving colonies were fixed and stained with 0.5% methylene blue and 0.13% carbol fuchsin in methanol. Colonies containing 50 or more cells were scored and data were fitted to the computer-generated single-hit multitarget and linear-quadratic models of radiation survival response.
SQ-20B cells treated with liposome-encapsulated ATG-AS raf ODN (SEQ ID NO:1) are radiosensitive. Radiation survival dose responses of SQ-20B cells exposed to LE-ATG-AS raf ODN (SEQ ID NO:1), LE-ATG-S raf ODN (SEQ ID NO:3), or blank liposomes are presented in Table 1. […] The single-hit, multitarget (target model) and the linear quadratic model (LQ) are most commonly used to analyze cellular radiation survival. The target model is based on the parameters D0 and fl, where D0 is the inverse of the terminal slope of the survival curve and fl is the extrapolation of this slope to the ordinate. […]

“5′-GTG-CTCCATTGATGC-3′ (antisense GTGCTCCATTGATGC; DNA, linkages s1 o12 s1 (s phosphorothioate, o phosphodiester), methylation of C not given here) [ATG-AS raf ODN, antisense ODN to translation initiation site of human c-raf-1 cDNA; one terminal base linkage at each end phosphorothioate]”: in the data set with Raf-1, the “inhibition of Raf-1 expression in normal tissues” value is reported as “No inhibition”. Further, the plasma concentration in data set [1] (at 5 min) was 9.75 µg/mL. Besides, the “only time at which intact ODN detectable in plasma” value in data set [1] (free ODN) was 5 min. In addition, in the data set on SQ-20B cells [2] (at 6 hours), the “ODN taken up by SQ-20B cells” value is on record as below 2%. The “maximal uptake by SQ-20B cells” value with SQ-20B cells [2] (at 12 hours) is “approximately 4%”. The “dose modifying factor (DMF)” value in the data set with SQ-20B cells [3] is listed as “approximately 1.4”.
